According to patent EP0012729A1, “Therapeutic compositions containing as active compound a substituted acetic acid or its salt” ("IBIS" ISTITUTO BIOCHIMICO SPERIMENTALE S.p.A., priority 1978, dated 1980):

Test system: Wistar rats
Test: Choleretic activity in the rat, bile fistula method
Assay type: in vivo
Details: for Peak choleresis time of appearance / Peak choleresis % increase / Duration index: 200 mg/kg p.o. (dose given for 1620 only); for Peak choleresis % increase: increase over controls as percentage of base choleresis; for Duration index: time for halving the maximum choleresis increase; for Flow: 200 mg/kg p.o.; for ml of bile flow ± s.e.: second series
Text: It is known that the primary effect of a choleretic agent is to increase the bile flow and the quantity of solid substances excreted with the bile. A good choleretic must provide this effect in a sufficiently intense and prolonged manner. In addition, as in the case of all drugs, it must have low acute toxicity and good general tolerability, but in particular must be free from toxic effects on the organ on which it is required to act, i.e. the liver, whether this is in a normal or pathological state. The analysis of the new product in comparison with the best known products for the same therapeutic use has therefore been focused on these aspects. The choleretic activity of the new product has been determined in the rat by using the bile fistula method. Wistar rats of both sexes and having a weight of between 180 and 240 g were used.
The animals, which were kept fasting for 12 hours but with free access to water, were narcotised by ethyl urethane in a dose of 1 g/kg by intra peritoneal or intramuscular injection.
After binding the animals to the retention bed, a median laparatomy was carried out, and when the bile duct had been isolated a cannula needle was inserted into it. A polythene tube was then inserted into those ani mals which were to receive the products intraduodenally, after which a su ture was carried out on the abdominal wall, and the bile was allowed to discharge for 30 minutes after inserting the cannula in the bile duct, so as to allow the discharge to become normal. The bile was then collec ted for one hour.
Having determined the volume of bile discharged during this first hour of collection (base volume), the products under examination were administered at the predetermined doses and by the predetermined methods. The bile excreted by the individual animals was then collected over each hour for a further six hours.
During the experiments, the animals were kept at ambient temperature of about 22°C, and at regular intervals of two hours received 10 ml/kg of physiological solution s.c.
The liquids were administered at a temperature of 37°C.
The bile flow and cholesterol excretion were determined on those bile fractions excreted by the animals over each hour starting from the base hour until the end of the experiment
The dry residue (R.So) was determined on the bile fraction excreted during the base hour and on the total bile fractions excreted during the sub sequent hours. For practical reasons, the determination of the dry residue and of the cholesterol (carried out by the Sperry & Webb method) were carried out on the pool of bile excreted by the entire group of animals subjected to the same treatment instead of on the bile fractions excreted by the individual animals (which was sometimes insufficient for determining the cholesterol).
In compiling the graphs, the differences between the choleresis in the treated animals and that in the controls was calculated over the considered time intervals, and expressed as a percentage of the base choleresis. For this calculation, the following formula was used: [formula] where Cn and C' represent the choleresis (in ml/kg/h for the bile flow, and in mg/kg/h for the dry residue) determined over the considered time interval for the group of treated animals and the group of controls respectively. Cb and C'b represent the base choleresis in the group of treated animals and group of controls respectively.
This index was calculated as the time for halving the maximum choleresis increase recorded under their effect.

Molecule | Peak choleresis time of appearance | Peak choleresis % increase | Duration index | Flow (0 (base hour)) | Flow (1h) | Flow (2h) | Flow (3h) | Flow (4h) | Flow (5h) | Flow (6h) | also measured
dihydroxybutylether [Dihydroxydibutyl-ether] | 1st hour | 49% | 45' | 3,36±0,19 ml/kg/h | 5,10±0,23 ml/kg/h | 3,79±0,18 ml/kg/h | 3,08±0,15 ml/kg/h | 2,68±0,15 ml/kg/h | 1,97±0,05 ml/kg/h | 1,77±0,11 ml/kg/h | 
CCC(C(=O)O)C1(O)CCC(c2ccccc2)CC1 (stereo not drawn) [α-(1-hydroxy--4-phenylcyclohexyl)butyric acid] | 1st hour | 105% | 180' | 2,70±0,25 ml/kg/h | 5,60±0,51 ml/kg/h | 5,42±0,47 ml/kg/h | 4,63±0,28 ml/kg/h | 3,68±0,18 ml/kg/h | 3,05±0,12 ml/kg/h | 2,70±0,17 ml/kg/h | ml of bile flow ± s.e. (oral by gastric probe 50 mg/kg, 0 (base values)): 2,8±0,22 ml; ml of bile flow ± s.e. (oral by gastric probe 50 mg/kg, 1 h): 3,2±0,11 ml; ml of bile flow ± s.e. (oral by gastric probe 50 mg/kg, 2 h): 3,0±0,12 ml; ml of bile flow ± s.e. (oral by gastric probe 50 mg/kg, 3 h): 2,9±0,10 ml; ml of bile flow ± s.e. (oral by gastric probe 50 mg/kg, 4 h): 2,8±0,12 ml; ml of bile flow ± s.e. (oral by gastric probe 50 mg/kg, 5 h): 2,5±0,10 ml; ml of bile flow ± s.e. (oral by gastric probe 50 mg/kg, 6 h): 2,0±0,11 ml; ml of bile flow ± s.e. (oral by gastric probe 100 mg/kg, 0 (base values)): 2,6±0,17 ml; ml of bile flow ± s.e. (oral by gastric probe 100 mg/kg, 1 h): 3,7±0,13 ml; ml of bile flow ± s.e. (oral by gastric probe 100 mg/kg, 2 h): 3,6±0,14 ml; ml of bile flow ± s.e. (oral by gastric probe 100 mg/kg, 3 h): 3,4±0,11 ml; ml of bile flow ± s.e. (oral by gastric probe 100 mg/kg, 4 h): 3,0±0,11 ml; ml of bile flow ± s.e. (oral by gastric probe 100 mg/kg, 5 h): 2,9±0,13 ml; ml of bile flow ± s.e. (oral by gastric probe 100 mg/kg, 6 h): 2,1±0,13 ml
